From ChEMBL document CHEMBL1148392 (J Med Chem, 2004)

Legend:
Oryctolagus cuniculus [1] = assay: Variation of intraocular pressure in fifth day at a dose of 30 mg/kg by systemic administration in hypertensive rabbits; format: functional, Eye
Oryctolagus cuniculus [2] = species on record: Oryctolagus cuniculus; details: dose 30 mg/kg
Description: Variation of intraocular pressure in day one at a dose of 30 mg/kg by systemic administration in hypertensive rabbits

Carbonic anhydrase 1 = Carbonic anhydrase 1 (Homo sapiens, UniProt P00915)
Description: Inhibitory activity against human carbonic anhydrase I was determined

Carbonic anhydrase 2 = Carbonic anhydrase 2 (Homo sapiens, UniProt P00918)
Description: Inhibitory activity against human carbonic anhydrase II was determined

Oryctolagus cuniculus [3] = species on record: Oryctolagus cuniculus; details: dose 30 mg/kg; remark: listed apart in the source
Description: Variation of intraocular pressure in second day at a dose of 30 mg/kg by systemic administration in hypertensive rabbits

Oryctolagus cuniculus [4] = species on record: Oryctolagus cuniculus; details: dose 30 mg/kg; remark: listed apart in the source
Description: Variation of intraocular pressure in third day at a dose of 30 mg/kg by systemic administration in hypertensive rabbits

Oryctolagus cuniculus [5] = species on record: Oryctolagus cuniculus; details: dose 30 mg/kg; remark: listed apart in the source
Description: Variation of intraocular pressure in seventh day at a dose of 30 mg/kg by systemic administration in hypertensive rabbits

Carbonic anhydrase 4 = target: T1, Carbonic anhydrase 4 (Bos taurus, UniProt Q95323)
T1 sequence (Q95323 whole entry): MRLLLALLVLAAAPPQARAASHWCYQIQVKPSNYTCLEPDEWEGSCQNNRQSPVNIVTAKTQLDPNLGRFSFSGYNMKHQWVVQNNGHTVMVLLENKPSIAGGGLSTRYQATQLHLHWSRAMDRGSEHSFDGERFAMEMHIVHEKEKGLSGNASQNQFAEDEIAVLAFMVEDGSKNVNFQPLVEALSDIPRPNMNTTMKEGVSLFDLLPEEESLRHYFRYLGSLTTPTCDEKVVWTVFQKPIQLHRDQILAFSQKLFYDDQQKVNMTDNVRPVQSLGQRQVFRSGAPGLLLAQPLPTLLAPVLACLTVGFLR
Description: Inhibitory activity against bovine carbonic anhydrase IV was determined

Oryctolagus cuniculus [6] = species on record: Oryctolagus cuniculus; details: dose 30 mg/kg; remark: listed apart in the source
Description: Variation of intraocular pressure in fourth day at a dose of 30 mg/kg at a dose by systemic administration in hypertensive rabbits

Oryctolagus cuniculus [7] = species on record: Oryctolagus cuniculus; details: dose 30 mg/kg; remark: listed apart in the source
Description: Variation of intraocular pressure in sixth day at a dose of 30 mg/kg by systemic administration in hypertensive rabbits

Carbonic anhydrase 9 = Carbonic anhydrase 9 (Homo sapiens, UniProt Q16790)
Description: Inhibitory activity against human carbonic anhydrase IX was determined

Chain of Carbonic anhydrase 1 (P00915 whole entry): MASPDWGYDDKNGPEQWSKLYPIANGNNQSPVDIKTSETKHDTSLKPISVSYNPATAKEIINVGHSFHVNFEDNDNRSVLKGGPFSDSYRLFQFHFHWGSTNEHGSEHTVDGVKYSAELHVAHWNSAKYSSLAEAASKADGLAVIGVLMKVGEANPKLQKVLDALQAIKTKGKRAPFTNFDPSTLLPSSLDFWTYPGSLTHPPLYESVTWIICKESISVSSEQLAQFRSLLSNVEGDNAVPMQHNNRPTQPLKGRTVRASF

Structure (SMILES) | Delta IOP (Oryctolagus cuniculus [1]) [mmHg] | Delta IOP (Oryctolagus cuniculus [2]) [mmHg] | IC50 (Carbonic anhydrase 1) [µM] | IC50 (Carbonic anhydrase 2) [µM] | Delta IOP (Oryctolagus cuniculus [3]) [mmHg] | Delta IOP (Oryctolagus cuniculus [4]) [mmHg] | Delta IOP (Oryctolagus cuniculus [5]) [mmHg] | IC50 (Carbonic anhydrase 4) [µM] | Delta IOP (Oryctolagus cuniculus [6]) [mmHg] | Delta IOP (Oryctolagus cuniculus [7]) [mmHg] | IC50 (Carbonic anhydrase 9) [µM]
CS(=O)(=O)c1ccc(-n2cc(-c3ccc(F)cc3)c(C(F)(F)F)n2)cc1 | 0.16 | 0.14 | > 100 | > 100 | 0.31 | 0.22 | 0.16 | > 100 | 0.25 | 0.34 | > 100
Cc1ccc(-c2cc(C(F)(F)F)nn2-c2ccc(S(N)(=O)=O)cc2)cc1 [CELECOXIB] |  |  |  |  |  |  |  |  |  |  | 0.016
COc1ccc(-n2nc(C(F)(F)F)cc2-c2ccc(Cl)cc2)cc1 [SC-560] | 0.3 | 0.23 | > 100 | > 100 | 0.017 | 0.25 | 0.52 | > 100 | 0.34 | 0.41 | > 100
